Assay results from a melting point compilation (Tetko et al.; mined from patent text by program, amines drawn as free bases though some values may be those of a salt).

Compared with `COc1cccc(N=C(NC#N)Oc2ccccc2)c1`, `CCOC(=O)c1cc(Oc2ccccc2)ccc1OC` is lower in melting point: 170 to 171 °C for the first, 52 °C for the second.

Compared with `CSC1C(=O)Nc2c(Oc3cccc4ccccc34)cccc21` (configuration not stated), `O=C1Cn2c(nc3ccccc3c2=O)-c2ccccc2N1` is higher in melting point: 134 to 139 °C for the first, 318 to 319 °C for the second.

Compared with `CCCc1c(-c2cc(=O)c3c(O)cc(O)cc3o2)ccc(OC)c1O`, `COc1ccc2oc(-c3nc(C(C)(C)C)cs3)cc2c1` is lower in melting point: 200 °C for the first, 80 to 81 °C for the second.

First: O=C(Cc1ccccc1Cl)Nc1ccc(C(=O)N2Cc3ccccc3Cc3ccccc32)cc1
Second: O=C1NN(C(=O)Nc2ccc(OCc3ccccc3)cc2)C(c2ccccc2)C1c1ccccc1 (configuration not stated)
The melting point of the first is higher: 191 to 194 °C for the first, 127 to 130 °C for the second.

Compared with `CC1=C(C#N)S(=O)c2ccc(C(F)(F)F)cc2N1` (configuration not stated), `Cc1c(C(=O)O)cnn1-c1cc(C(F)(F)F)ccc1Cl` is lower in melting point: 290 to 292 °C for the first, 124 to 125 °C for the second.

Compared with `CCOc1ccc(NC(=O)OC(C)(C)C)c(C)c1`, `COC(=O)C(C#N)c1c[nH]c2ccc(OC)cc12` (configuration not stated) is higher in melting point: 55 to 56 °C for the first, 98 to 100 °C for the second.

First: N#Cc1ccc([C@@H]2CNC[C@@]23NC(=O)N(c2cc(Cl)cc(Cl)c2)C3=O)cc1 (relative stereo)
Second: O=C1N(c2cc(Cl)cc(Cl)c2)C(=O)C2(Cc3ccc(Br)cc3)CNCCN12 (configuration not stated)
The melting point of the first is higher: 198 °C for the first, 92.5 °C for the second.

First: O=c1[nH]c2cc(Cl)ccc2c(=O)n1Cc1ccc(Br)cc1F
Second: O=c1c(-c2ccc(Cl)cc2)nc2ccccc2n1CC(F)F
The melting point of the first is higher: 288 to 289 °C for the first, 133 to 136 °C for the second.

Compared with `CC1(C)CC(=O)Nc2cc(-c3nc4ccccc4[nH]3)ccc21`, `CC(C)c1nc2c(c3c1[nH]c1ccccc13)C(=O)CC(C)(C)C2` is lower in melting point: 314 to 316 °C for the first, 176 to 178 °C for the second.

Compared with `CC(C)CCNC(=O)c1cc2c(Nc3cccc(Cl)c3)ncnc2[nH]1`, `NCc1ccc(Nc2n[nH]c3ncnc(Nc4cccc(Cl)c4)c23)cc1` is lower in melting point: 304 to 306 °C for the first, 207 to 209 °C for the second.

Compared with `Cc1nc2cnccc2n1-c1ccc(COc2ccccc2C(=O)O)cc1`, `Cc1ccc(S(=O)(=O)NC(=O)OCCc2ccc(-n3c(CCC(=O)c4ccccn4)nc4cc(C(F)(F)F)c(Cl)cc43)cc2)cc1` is higher in melting point: 217 to 219 °C for the first, 234 °C for the second.

First: CC(C)(C)OC(=O)N1CCC[C@H](O)[C@@H]1c1ccc(Cl)cc1 (relative stereo)
Second: CCN(CC)CCNC(=O)N1CCCC(S(=O)(=O)c2ccc(OC)cc2)C1 (configuration not stated)
The melting point of the first is lower: 95 to 96 °C for the first, 118 to 121 °C for the second.

First: CC(C)n1nc(-c2sc(NC(=O)c3ccccc3)nc2-c2ccccc2)ccc1=O
Second: O=C(O)Cc1c(Cl)nc(-c2ccccc2)n1Cc1ccccc1
The melting point of the first is lower: 126 to 129 °C for the first, 161 to 163 °C for the second.

First: Cc1noc(NS(=O)(=O)c2ccccc2-c2ccc(-c3ncco3)cc2CN(C)C(=O)c2ccc(F)c(F)c2)c1C
Second: CC(C)(Cc1ccccc1)C(NC(=O)c1cccnc1)Nc1c(Nc2cccnc2)c(=O)c1=O (configuration not stated)
The melting point of the first is lower: 122 to 128 °C for the first, 220 to 222 °C for the second.

First: COC(=O)c1cc2ccccc2n1-c1ccccn1
Second: Cc1occc(=O)c1OCc1ccccc1
The melting point of the first is higher: 158 to 159 °C for the first, 51 to 52 °C for the second.

Compared with `O=C(NCC(C=C1CCCCC1[N+](=O)[O-])=NO)c1cccnc1` (configuration not stated), `O=C(O)c1cc(N2CCCCC2)ccc1[N+](=O)[O-]` is lower in melting point: 149 to 151 °C for the first, 130 to 140 °C for the second.

Compared with `Nc1nc2c(s1)CCN(CC1=Cc3ccccc3CC1)CC2`, `O=C1Cc2cc(C(=O)N3CCN(Cc4ccccc4)CC3)ccc2N1` is lower in melting point: 158 to 160 °C for the first, 151 to 153 °C for the second.

First: CN(C)C(=O)N[C@H]1CC[C@H](CCN2CCN(c3ccc(O)c(Cl)c3Cl)CC2)CC1
Second: O=C([C@H](O)CS(=O)(=O)c1ccc2cc(Cl)ccc2c1)N1CCN(N2CCCCC2=O)CC1
The melting point of the first is higher: 278 to 280 °C for the first, 198 °C for the second.

`Cc1c(-c2ccc(OC3CCCC3)cc2)n(Cc2ccc(OCCBr)cc2)c2ccc(OCc3ccccc3)cc12` and `CCOCc1nc2cnc3cc(OCc4ccccc4)ccc3c2n1CC1COC(C)(C)O1` (configuration not stated) cannot be ordered by melting point: 110 to 112 °C for the first, 110 to 111 °C for the second.

First: CN(C)c1ccc(NC(=O)N(CCC2=CCCCC2)C[C@H]2CCC[C@H](CN(CCC3=CCCCC3)C(=O)Nc3ccc(N(C)C)cc3)C2)cc1 (relative stereo)
Second: O=C(O)CCCc1ccc(C(NS(=O)(=O)c2ccc(Cl)cc2)C2CCCCC2)cc1 (single isomer, unassigned; (+))
The melting point of the first is lower: 80 to 83 °C for the first, 165 to 166 °C for the second.

First: Cn1cc(-c2cccc(C3NCCc4c3sc3c4CC(C)(C)C3)c2CO)cc(Nc2cnn3c2COCC3)c1=O (configuration not stated)
Second: COC(=O)Cn1c(C(=O)Nc2nc(-c3cc(OC)ccc3OC)c(CC3CCCCC3)s2)cc2cc(C)cc(C)c21
The melting point of the first is higher: 167 to 168 °C for the first, 89 to 92 °C for the second.

First: Cc1c(C(=O)N[C@H](C)[C@](O)(Cn2cncn2)c2ccc(F)cc2F)cnn1-c1ccc(C(F)(F)F)cc1
Second: N[C@@H](Cc1ccc(C(F)(F)F)cc1)[C@H](O)c1ccc(F)cc1F (racemic)
The melting point of the first is higher: 180 to 181 °C for the first, 99 to 100 °C for the second.

`O=C1CCN(c2nc(=O)c3cccnc3s2)CC1` and `Fc1ccc(Cn2c(NC3CCN(CCc4cn5ccsc5n4)CC3)nc3ccccc32)cc1` cannot be ordered by melting point: 222 to 225 °C for the first, 223 °C for the second.

First: OC(Cn1cncn1)(c1ccccc1)c1ccccc1
Second: O=C(CCCc1ccccc1)N(O)Cc1ccccc1
The melting point of the first is higher: 128 to 129 °C for the first, 72 to 74 °C for the second.

First: COC(=O)CCc1oc(=O)[nH]c1-c1ccc(C(F)(F)F)cc1
Second: COC(=O)CCCc1nc(-c2ccc(C)cc2)oc1C(F)(F)F
The melting point of the first is higher: 156 to 157 °C for the first, 44.5 to 45 °C for the second.

Compared with `NCc1cc(-c2ccc(C(F)(F)F)cc2)no1`, `NS(=O)(=O)c1ccc(-c2nc(-c3cnn4c(C(F)(F)F)cc(-c5ccc(C(F)(F)F)cc5)nc34)no2)s1` is higher in melting point: 59 °C for the first, 272 °C for the second.

Compared with `CC1(c2cc(NC(=O)c3ccc(Cl)cn3)ccc2F)N=C(N)COCC1(F)F` (configuration not stated), `Cc1c(C(=O)Nc2ccc(Cl)c([N+](=O)[O-])c2)cnn1-c1ccc(Cl)cc1` is higher in melting point: 190 to 193 °C for the first, 221 to 225 °C for the second.

First: CCOC(=O)Cc1ccc(NC2=NN(c3ccc(C)cc3)CC2)cc1
Second: CCN(C(=O)n1nnc2cc(C)ccc21)c1ccccc1
The melting point of the first is higher: 145 to 146 °C for the first, 42 to 43 °C for the second.

First: CCCCn1c(=O)[nH]c(C(F)(F)F)c(Cl)c1=O
Second: CCCCc1c(C(=O)O)c2ccccc2n1C
The melting point of the first is lower: 138 to 139 °C for the first, 163 to 165 °C for the second.

First: CC(F)(F)c1cccc(C[C@H](N)[C@H](O)c2ccc(F)cc2)c1 (racemic)
Second: O=C(Oc1ccc(F)cc1)c1cccc(F)c1
The melting point of the first is higher: 101 to 102 °C for the first, 63.5 to 66 °C for the second.

Compared with `CC(CNC(=O)N(CCN(C)C(=O)OC(C)(C)C)CCC12CC3CC(CC(C3)C1)C2)Cc1ccncc1` (single isomer, unassigned; (+)), `CC(C)CC(=O)C1CCC2C3CN(C(C)(C)C)C4=CC(=O)CCC4(C)C3CCC12CC(=O)O` (configuration not stated) is higher in melting point: 123 to 124 °C for the first, 169 to 171 °C for the second.

First: COC(=O)c1cc(Oc2ccc(F)cc2F)ncc1[N+](=O)[O-]
Second: COc1ccc(/C=C(\C)[N+](=O)[O-])cc1OCc1ccccc1
The melting point of the first is lower: 90.2 to 91.4 °C for the first, 102 to 104 °C for the second.

First: CC(=O)Oc1ccc(CCl)cc1C(OC(C)=O)OC(C)=O
Second: CCOC(=O)c1cn(C(=O)OCC(C)C)c2c(COC(C)=O)cc(C)cc2c1=O
The melting point of the first is lower: 93 to 95 °C for the first, 101 to 103 °C for the second.

First: Cc1ccc(C2C(=O)Oc3c2cc(C(C)(C)C)cc3C(C)(C)C)cc1 (configuration not stated)
Second: C[C@@H]1Nc2ccc(-c3cc(F)cc(C#N)c3)cc2[C@](C)(c2ccccc2)O1
The melting point of the first is higher: 130 to 133 °C for the first, 128 to 129 °C for the second.

Compared with `C=C1CCCC2CCC3C(CCC4(C)C3C(C=O)C35OCCOC43OCCO5)C12C` (configuration not stated), `O=C1Nc2ccc(C3CC4CCC3C4)cc2C12OCCO2` (configuration not stated) is lower in melting point: 192 °C for the first, 159 to 161 °C for the second.

First: N#Cc1cc2[nH]cc(C(=O)O)c2cc1-c1ccc(C2(CO)CC2)cc1
Second: N#Cc1ccc(N(Cc2ccc(O)c(Br)c2)n2cnnc2)cc1-c1ccoc1
The melting point of the first is higher: 271 to 272 °C for the first, 200 to 201 °C for the second.

First: CCCCCCCCCCCCOc1c(OC)cc(N)c2nccc(C)c12
Second: CCCOc1cc(NC(=O)NC(C)C)ccn1
The melting point of the first is lower: 53 to 55 °C for the first, 77 to 79 °C for the second.

First: C=CCOc1ccc2ccc(N)nc2n1
Second: Nc1cc(Oc2ccc3c(C(=O)Nc4ccc(F)c(C(F)(F)F)c4)cccc3c2)ncn1
The melting point of the first is lower: 138 °C for the first, 224 to 225 °C for the second.

First: CCS(=O)(=O)c1ccc2c(c1)nc(CC(C)(C)C)n2CC1(O)CCCC1
Second: Cc1ccc(C(=O)CC(=O)C2CC2)c(S(C)(=O)=O)c1
The melting point of the first is higher: 172 °C for the first, 129 to 131 °C for the second.

First: CCN(CC)C(C)CN1CCc2c(c(=O)oc3cc(C)c(Cl)cc23)C1 (configuration not stated)
Second: CCOC(=O)CC1CCCc2cc(C#N)ccc21 (configuration not stated)
The melting point of the first is higher: 78 to 80 °C for the first, 45 to 47 °C for the second.

First: CNC(=S)NCCSCc1csc(N)n1
Second: CC(NC(=O)NCCCCC1CCSS1)C(=O)NS(N)(=O)=O (configuration not stated)
The melting point of the first is lower: 136 to 140 °C for the first, 156 to 157 °C for the second.

First: O=C(C1CCCCC1)N1CC(=NO)NC(=NO)C1
Second: COC1=CCC(Br)(OC)C=C1C(=O)C(Br)CCC1CCCCC1 (configuration not stated)
The melting point of the first is higher: greater than 260 °C for the first, 96 to 104 °C for the second.

First: CC(C)NS(=O)(=O)c1ccc(S(N)(=O)=O)cc1
Second: CC(=O)CCC(=O)c1ccc(S(C)(=O)=O)cc1
The melting point of the first is higher: 166 to 168 °C for the first, 132 to 133 °C for the second.

First: N#CC1CN1C(=O)NC(=O)C(Cl)Cl (configuration not stated)
Second: O=C1C=C(NC(=O)C(=O)c2cn(Cc3ccc(F)cc3)c3cc4c(cc23)OCO4)CO1
The melting point of the first is lower: 164 to 166 °C for the first, 210 to 212 °C for the second.

First: C(=Cc1ccc(-c2cc3c(ccc4oc5ccccc5c43)o2)cc1)c1ccccc1
Second: c1ccc(NC2(c3ccccc3)N=C(c3ccccc3)N=C2c2ccccc2)cc1 (configuration not stated)
The melting point of the first is higher: 239 to 241 °C for the first, 157 °C for the second.

First: COc1c(Br)cc([N+](=O)[O-])cc1-c1c2ccccc2c(Br)c2sc(C)c(C)c12
Second: CNC1=Nc2ccc(Br)cc2C(c2ccccc2)=NC1
The melting point of the first is lower: 204 to 205 °C for the first, 234 to 235 °C for the second.

First: OC1CSC(Oc2cccc(-c3ccc(F)cn3)c2)C(O)C1O (configuration not stated)
Second: O=C1OCN(C(=O)OCc2ccccc2)[C@H]1Cc1ccccc1
The melting point of the first is higher: 168 to 201 °C for the first, 85.5 to 86.5 °C for the second.

Compared with `Nc1ncc(C(=O)Cl)cc1Cl`, `O=[N+]([O-])c1ccc(Cn2cncn2)cc1` is lower in melting point: greater than 250 °C for the first, 98 to 100 °C for the second.

Work on `O=C1CC(=O)N(c2ccccc2)c2cc(Cl)ccc2N1CC1CC1` yielded a melting point of 215 to 218 °C.
